Source: patent publication US6869959B1, “Heterocyclic carboxylic acid derivatives” (Institute of Medicinal Molecular Design Inc., priority 1999, dated 2005)

Assays:
[1] = test system: promyelocytic leukemia cell stain HL-60; assay: Cell differentiation-inducing activity test in HL-60 cell, each compound alone; assay type: cell-based; settings: HL-60, NBT reduction
From the text: (§1) By using the above compounds, cell differentiation-inducing activity of each compound alone, and effect on cell differentiation-inducing action of a co-existing retinoid were examined. As a comparative and co-existing retinoid, Am80: 4-[(5,6,7,8-tetrahydro-5,5,8,8-tetramethyl-2-naphthalenyl)carbamoyl]benzoic acid (1×10^−10 M) was used. According to the method described in Japanese Patent Unexamined Publication (KOKAI) No.(Sho)61-76440/1986, promyelocytic leukemia cell stain HL-60 was used, and differentiation into granulocytic cells was determined by observing morphological change and measuring ability to reduce nitroblue tetrazolium (NBT). The ratios of differentiated cells shown in the following table were calculated from the ability of reducing NBT.

[2] = test system: promyelocytic leukemia cell stain HL-60; assay: Effect on cell differentiation-inducing action of co-existing retinoid Am80 in HL-60 cell; assay type: cell-based; settings: HL-60, NBT reduction
From the text: as §1

CCCN(c1ccc2c(c1)C(C)(C)CCC2(C)C)c1ncc(C(=O)O)cn1 [Compound 3]
Ratio of differentiated cells by each compound alone (%) ([1]; compound concentration 10^−6 M): 16% | Ratio of differentiated cells by each compound alone (%) ([1]; compound concentration 10^−7 M): 14% | Ratio of differentiated cells by each compound alone (%) ([1]; compound concentration 10^−8 M): 9% | Ratio of differentiated cells by each compound co-existing with 1 × 10^−10 M Am80 (%) ([2]; compound concentration 10^−7 M + 1 × 10^−10 M Am80): 89% | Ratio of differentiated cells by each compound co-existing with 1 × 10^−10 M Am80 (%) ([2]; compound concentration 10^−8 M + 1 × 10^−10 M Am80): 87% | Ratio of differentiated cells by each compound co-existing with 1 × 10^−10 M Am80 (%) ([2]; compound concentration 10^−9 M + 1 × 10^−10 M Am80): 90% | Ratio of differentiated cells by each compound co-existing with 1 × 10^−10 M Am80 (%) ([2]; compound concentration 10^−10 M + 1 × 10^−10 M Am80): 60% | Ratio of differentiated cells by each compound co-existing with 1 × 10^−10 M Am80 (%) ([2]; compound concentration 10^−11 M + 1 × 10^−10 M Am80): 27%

Cc1cc2c(cc1Nc1ncc(C(=O)O)cn1)C(C)(C)CCC2(C)C [Compound 5, 2-[N-(5,6,7,8-Tetrahydro-3,5,5,8,8-pentamethylnaphthalen-2-yl)amino]pyrimidine-5-carboxylic Acid]
melting point: 267 °C

CCCN(c1ncc(C(=O)O)cn1)c1cc2c(cc1C)C(C)(C)CCC2(C)C [Compound 7, 2-[N-n-Propyl-N-(5,6,7,8-tetrahydro-3,5,5,8,8-pentamethyl-naphthalen-2-yl)amino]pyrimidine-5-carboxylic Acid]
melting point: 193 °C

Cc1cc2c(cc1N(CC1CC1)c1ncc(C(=O)O)cn1)C(C)(C)CCC2(C)C [Compound 8, 2-[N-Cyclopropylmethyl-N-(5,6,7,8-tetrahydro-3,5,5,8,8-pentamethylnaphthalen-2-yl)amino]pyrimidine-5-carboxylic Acid]
melting point: 123 °C

CN(c1cc(C(C)(C)C)cc(C(C)(C)C)c1)c1ncc(C(=O)O)cn1 [Compound 9, 2-[N-(3,5-Di-tert-butylphenyl)-N-methylamino] pyrimidine-5-carboxylic Acid]
melting point: 261 to 263 °C

CCCN(c1ncc(C(=O)O)cn1)c1cc(C(C)(C)C)ccc1C(C)(C)C [Compound 11, 2-[N-(3,6-Di-tert-butylphenyl)-N-n-propylamino]pyrimidine-5-carboxylic Acid]
melting point: 219 °C

CC(C)(C)c1cc(N(CC2CC2)c2ncc(C(=O)O)cn2)cc(C(C)(C)C)c1 [Compound 12, 2-[N-Cyclopropylmethyl-N-(3,5-di-tert-butylphenyl)-amino]pyrimidine5-carboxylic Acid]
melting point: 194 °C
